Reference: US20240208956A1, “1,3,4-OXADIAZOLE THIOCARBONYL COMPOUNDS AS HISTONE DEACETYLASE 6 INHIBITOR, AND PHARMACEUTICAL COMPOSITION COMPRISING THE SAME” (CHONG KUN DANG PHARMACEUTICAL CORP., priority 2021, published 2024)

Tests used:
HDAC6 human recombinant = HDAC6 human recombinant (Homo sapiens (Human), UniProt Q9UBN7); assay: HDAC enzyme activity inhibition (in vitro), HDAC6 fluorimetric assay; assay type: biochemical; settings: samples at 0.1-1000 nM; 37° C. 60 minutes; fluorescence Ex 390 nm, Em 460 nm
HDAC6 human recombinant, sequence (Q9UBN7 whole entry): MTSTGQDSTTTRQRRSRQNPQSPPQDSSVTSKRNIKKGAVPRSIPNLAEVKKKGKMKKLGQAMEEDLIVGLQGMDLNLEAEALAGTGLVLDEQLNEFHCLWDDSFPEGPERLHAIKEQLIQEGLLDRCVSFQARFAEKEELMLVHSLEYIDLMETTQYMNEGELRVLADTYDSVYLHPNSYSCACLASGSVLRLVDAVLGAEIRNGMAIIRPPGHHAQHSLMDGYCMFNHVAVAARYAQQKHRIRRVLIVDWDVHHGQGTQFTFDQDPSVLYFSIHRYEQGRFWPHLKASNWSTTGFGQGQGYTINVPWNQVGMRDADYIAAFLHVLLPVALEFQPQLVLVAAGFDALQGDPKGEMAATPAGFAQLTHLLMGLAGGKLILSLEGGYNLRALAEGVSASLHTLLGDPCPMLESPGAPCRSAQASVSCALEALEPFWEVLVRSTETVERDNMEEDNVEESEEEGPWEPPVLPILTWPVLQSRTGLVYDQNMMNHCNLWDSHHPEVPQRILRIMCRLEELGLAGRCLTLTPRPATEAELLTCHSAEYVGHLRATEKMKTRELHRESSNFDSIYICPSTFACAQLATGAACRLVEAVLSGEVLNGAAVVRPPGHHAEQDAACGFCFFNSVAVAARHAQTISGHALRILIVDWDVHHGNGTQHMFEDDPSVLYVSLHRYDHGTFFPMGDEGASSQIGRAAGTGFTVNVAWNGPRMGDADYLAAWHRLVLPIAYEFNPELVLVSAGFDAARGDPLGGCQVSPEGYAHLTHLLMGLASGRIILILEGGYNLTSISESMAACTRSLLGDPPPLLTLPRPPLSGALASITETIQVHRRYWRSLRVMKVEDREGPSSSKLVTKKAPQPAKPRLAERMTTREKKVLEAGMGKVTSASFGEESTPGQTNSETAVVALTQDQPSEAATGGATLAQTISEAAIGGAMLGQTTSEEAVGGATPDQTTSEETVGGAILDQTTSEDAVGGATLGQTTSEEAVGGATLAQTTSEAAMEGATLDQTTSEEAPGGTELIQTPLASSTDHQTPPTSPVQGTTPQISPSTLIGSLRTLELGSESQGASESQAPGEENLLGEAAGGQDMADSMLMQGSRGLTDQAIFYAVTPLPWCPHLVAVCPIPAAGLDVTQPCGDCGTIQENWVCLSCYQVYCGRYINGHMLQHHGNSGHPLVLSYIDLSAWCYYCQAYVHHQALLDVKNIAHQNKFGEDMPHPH
Method: Confirmation of HDAC Enzyme Activity Inhibition (In Vitro)
(§1) An HDAC enzyme inhibitory capacity of test material was measured by using HDAC1 Fluorimetric Drug Discovery Assay Kit (Enzolifesciences: BML-AK511) and HDAC6 human recombinant (Calbiochem: 382180). For a HDAC1 assay, samples were treated at a concentration of 100 nM, 1000 nM and 10000 nM. For an HDAC6 assay, samples were treated at a concentration of 0.1 nM, 1 nM, 10 nM, 100 nM and 1000 nM. After the sample treatment, a reaction was continued at 37° C. for 60 minutes, treated with a developer, and subjected to reaction at 37° C. for 30 minutes, after which fluorescence intensity (Ex 390 nm, Em 460 nm) was measured by using FlexStation3 (Molecular device). For final result values, each […] value was calculated with GraphPad Prism 4.0 program.

HDAC1 = HDAC1 (Homo sapiens (Human), UniProt Q13547); assay: HDAC enzyme activity inhibition (in vitro), HDAC1 Fluorimetric Drug Discovery Assay Kit; assay type: biochemical; settings: samples at 100, 1000 and 10000 nM; 37° C. 60 minutes; fluorescence Ex 390 nm, Em 460 nm
HDAC1, sequence (Q13547 whole entry): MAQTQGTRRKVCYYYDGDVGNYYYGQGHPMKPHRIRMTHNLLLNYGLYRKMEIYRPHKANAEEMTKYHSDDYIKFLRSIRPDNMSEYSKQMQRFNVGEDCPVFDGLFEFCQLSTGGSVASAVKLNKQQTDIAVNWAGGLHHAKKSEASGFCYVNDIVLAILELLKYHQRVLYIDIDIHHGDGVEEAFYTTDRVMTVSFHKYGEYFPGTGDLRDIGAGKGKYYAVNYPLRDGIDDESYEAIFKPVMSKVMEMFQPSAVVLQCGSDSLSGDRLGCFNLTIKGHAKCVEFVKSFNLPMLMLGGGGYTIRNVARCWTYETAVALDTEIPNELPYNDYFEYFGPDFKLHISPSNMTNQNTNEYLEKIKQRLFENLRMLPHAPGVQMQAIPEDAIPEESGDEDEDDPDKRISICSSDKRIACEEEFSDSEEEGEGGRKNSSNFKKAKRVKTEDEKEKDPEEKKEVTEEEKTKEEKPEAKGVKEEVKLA
Method: Experimental Example 1. Confirmation of HDAC Enzyme Activity Inhibition (In Vitro)
as §1

Structure (SMILES): CN1CCC2(CC1)CN(C(=S)N(Cc1ccc(-c3nnc(C(F)F)o3)cc1F)c1ccc(F)c(F)c1)C2 [Compound 46, N-(4-(5-(difluoromethyl)-1,3,4-oxadiazol-2-yl)-2-fluorobenzyl)-N-(3,4-difluorophenyl)-7-methyl-2,7-diazaspiro[3.5]nonan-2-carbothioamide]
- IC50 (HDAC6 human recombinant): 28 nM
- IC50 (HDAC1): > 10000 nM
